{
  "source": "patent US9586921B2",
  "about": "“Burdock fruit extract containing arctigenin at high content and process for producing same” (Kracie Pharma, Ltd., priority 2009, dated 2017)",
  "key": {"CAPAN-1 Xenografts": {"tested_on": "CAPAN-1 Xenografts", "experiment": "Evaluation of the anticancer activity in the model animal of tumor (CAPAN-1 Xenografts)", "format": "in vivo, nude mouse", "conditions": "CAPAN-1 xenograft, 50 μg per mouse by mouth five times a week, one month after beginning of dosage, FIG. 5", "experimental": "(§1) [Test 3] (the Evaluation of the Anticancer Activity in the Model Animal of Tumor) (Method for Test) The subcutaneous dorsales of nude mouse (BALB-cAJ nu/nu; Nippon Kurea) which is the donor was inoculated the human pancreas cancer cell line, CAPAN-1 or PSN-1, and the obtained tumor mass of the donor mouse was transplanted into the subcutaneous dorsales of the recipient mouse to generate the model animal of tumor. […] The anticancer activity was evaluated by measuring the size of the tumor mass of subcutaneous dorsales sequentially."}, "PSN-1 Xenografts": {"tested_on": "PSN-1 Xenografts", "experiment": "Evaluation of the anticancer activity in the model animal of tumor (PSN-1 Xenografts)", "format": "in vivo, nude mouse", "conditions": "PSN-1 xenograft, 50 μg per mouse by mouth five times a week, one month after beginning of dosage, FIG. 6", "experimental": "as §1"}, "[1]": {"tested_on": "pancreas cancer cell line PANC-1", "conditions": "PANC-1, undernutrition condition; non-patent document 1; cited from earlier work"}, "CAPAN-1": {"tested_on": "CAPAN-1", "experiment": "Cytotoxic evaluation using the cultured cell (WST-8 viability), CAPAN-1", "format": "cell-based, human", "conditions": "CAPAN-1, DMEM (normal nutritional condition) and NDM (nutrient starvation)", "experimental": "(§2) [Test 2] (Cytotoxic Evaluation Using the Cultured Cell)\n(§3) The pancreas cancer cell line, CAPAN-1, PANC-1 and PSN-1 were plated to the 96 well plate, and they were pre-cultured in DMEM culture media in 37° C., 5% CO2 and 95% Air under normal nutritional condition for 24 hours. After washing these cells with PBS, the extracts which were extracted by the different methods in DMEM culture media (ending D in the graph) which is normal nutritional condition and in NDM culture media (ending I in the graph) which are a nutrient starvation condition (Example 2 and comparative example 2 in the graph) were added to each well including constant concentration of arctigenin, and incubated for 24 hours. The cells were washed in PBS again, 100 μL of DMEM culture media including 10% WST-8 was added to be reacted for two hours and measured the absorbance of 450 nm by the microplate reader, and viability of these cells were evaluated."}, "PANC-1": {"tested_on": "PANC-1", "experiment": "Cytotoxic evaluation using the cultured cell (WST-8 viability), PANC-1", "format": "cell-based", "conditions": "PANC-1, DMEM (normal nutritional condition) and NDM (nutrient starvation)", "experimental": "as §2, §3"}, "PSN-1": {"tested_on": "PSN-1", "experiment": "Cytotoxic evaluation using the cultured cell (WST-8 viability), PSN-1", "format": "cell-based, human", "conditions": "PSN-1, DMEM (normal nutritional condition) and NDM (nutrient starvation)", "experimental": "as §2, §3"}},
  "data": [
    {"smiles": "COc1cc(C[C@H]2C(=O)OC[C@@H]2Cc2ccc(OC)c(OC)c2)ccc1O", "note": "[arctigenin]", "values": [
      {"measurement": "antitumor effect (size of the tumor mass)", "setting": "CAPAN-1 Xenografts", "result": "antitumor effect was also obtained"},
      {"measurement": "antitumor effect (size of the tumor mass)", "setting": "PSN-1 Xenografts", "result": "antitumor effect was also obtained"},
      {"measurement": "effect in screen for release of viability of tumor cells in the undernutrition condition", "setting": "[1]", "result": "effective"}
    ]},
    {"smiles": "COc1ccc(C[C@H]2COC(=O)[C@@H]2Cc2ccc(O[C@@H]3O[C@H](CO)[C@@H](O)[C@H](O)[C@H]3O)c(OC)c2)cc1OC", "note": "[arctiin]", "values": [
      {"measurement": "anticancer activity", "setting": "CAPAN-1", "result": "in neither condition"},
      {"measurement": "anticancer activity", "setting": "PANC-1", "result": "in neither condition"},
      {"measurement": "anticancer activity", "setting": "PSN-1", "result": "in neither condition"}
    ]}
  ]
}
